In ChEMBL document CHEMBL1201862, “PubChem BioAssay data set” (2004) one finds IC50 and EC50 data, which are given here for five compounds.

Activity calls are given as the source filed them.

One assay deals with T1, Bcl-2-related protein A1 (Mus musculus, UniProt Q07440).
T1 sequence (Q07440 whole entry): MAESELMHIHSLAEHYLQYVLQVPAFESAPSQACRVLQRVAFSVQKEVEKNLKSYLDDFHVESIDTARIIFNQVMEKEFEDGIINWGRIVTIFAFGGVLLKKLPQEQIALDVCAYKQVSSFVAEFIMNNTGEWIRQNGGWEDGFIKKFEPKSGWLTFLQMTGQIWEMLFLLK
The class given is functional.

Another assay addresses T2, Orexin receptor type 2 (Homo sapiens, UniProt O43614).
T2 sequence (O43614 whole entry): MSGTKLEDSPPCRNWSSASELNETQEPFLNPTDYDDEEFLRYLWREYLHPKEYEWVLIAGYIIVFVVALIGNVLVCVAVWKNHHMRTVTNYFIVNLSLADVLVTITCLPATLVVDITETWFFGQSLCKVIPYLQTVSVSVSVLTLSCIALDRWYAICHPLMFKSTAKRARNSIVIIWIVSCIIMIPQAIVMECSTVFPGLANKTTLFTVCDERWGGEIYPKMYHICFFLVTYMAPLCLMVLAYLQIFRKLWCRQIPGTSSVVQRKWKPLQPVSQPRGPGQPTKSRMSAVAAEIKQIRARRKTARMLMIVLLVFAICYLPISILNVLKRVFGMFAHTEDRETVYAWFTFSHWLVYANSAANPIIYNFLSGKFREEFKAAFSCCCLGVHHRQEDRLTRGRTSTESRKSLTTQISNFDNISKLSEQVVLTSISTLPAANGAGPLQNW
As to the kind of experiment: Counterscreen assay for antagonists of the orexin 1 receptor (OX1R; HCRTR1): Homogeneous Time Resolved Fluorescence (HTRF)-based cell-based dose response assay for antagonists of the orexin 2 receptor (OX2R; HCRTR2), run by assay provider. It counts as functional. Background: A counterscreen serves to expose hits that act by an unwanted route or on another target.

The target of a further assay is Genome polyprotein (dengue virus type 2, UniProt P29990). The assay is described as follows: Dengue-2 NS5 methyltransferase inhibitors, primary screen, biochemical, confirmation dose response (AID 588689). The class given is functional.
For assay [1], the target named is G2/mitotic-specific cyclin-B1 (Homo sapiens, UniProt P14635). The assay is described as follows: Counterscreen assay for inhibitors of Wee1 degradation: dose response cell-based assay to identify inhibitors of cyclin B degradation. [Related pubchem assays: 1410, 1321 ]. The class given is functional.
Assay [2] in a line: cytotoxicity toward NIH3T3 fibroblasts, dose response, counter-screen, cell-based, ATP luminescence, mouse fibroblasts (AID 2010).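 Further: cells exposed to compound for about 90 hours before reading.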 The class given is functional.
In the next assay the test system is Jurkat. As to the kind of experiment: SAR Analysis of small molecule inhibitors of T-cell specific antigen receptor-induced NF-kB activation in a Jurkat cell line using a luminescence assay - Set 2. [Related pubchem assays (depositor defined):AID435003, AID435012, AID465]. Conditions: Homo sapiens. The class given is functional, cell-based.
For assay [3], the target named is T3, Calpain-2 catalytic subunit (Sus scrofa, UniProt P43367).
T3 sequence (P43367 whole entry): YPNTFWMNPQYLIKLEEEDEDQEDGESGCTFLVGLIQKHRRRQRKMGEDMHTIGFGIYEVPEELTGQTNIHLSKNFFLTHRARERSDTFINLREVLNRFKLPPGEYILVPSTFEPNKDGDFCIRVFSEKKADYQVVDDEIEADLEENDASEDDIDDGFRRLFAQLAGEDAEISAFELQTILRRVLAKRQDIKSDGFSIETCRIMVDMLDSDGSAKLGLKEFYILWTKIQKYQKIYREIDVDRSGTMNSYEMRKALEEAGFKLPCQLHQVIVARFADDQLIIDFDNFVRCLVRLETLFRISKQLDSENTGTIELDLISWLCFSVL
The assay is described as follows: pig calpain II inhibitor potency, dose response, biochemical, fluorogenic peptide substrate (AID 1420). It counts as functional.

The nature of assay [4]: HeLa 2N DNA content increase, dose response, cell-based, IC50 (AID 1117349). The class given is functional.

Genome polyprotein, sequence (P29990 2492-3391 limits assumed): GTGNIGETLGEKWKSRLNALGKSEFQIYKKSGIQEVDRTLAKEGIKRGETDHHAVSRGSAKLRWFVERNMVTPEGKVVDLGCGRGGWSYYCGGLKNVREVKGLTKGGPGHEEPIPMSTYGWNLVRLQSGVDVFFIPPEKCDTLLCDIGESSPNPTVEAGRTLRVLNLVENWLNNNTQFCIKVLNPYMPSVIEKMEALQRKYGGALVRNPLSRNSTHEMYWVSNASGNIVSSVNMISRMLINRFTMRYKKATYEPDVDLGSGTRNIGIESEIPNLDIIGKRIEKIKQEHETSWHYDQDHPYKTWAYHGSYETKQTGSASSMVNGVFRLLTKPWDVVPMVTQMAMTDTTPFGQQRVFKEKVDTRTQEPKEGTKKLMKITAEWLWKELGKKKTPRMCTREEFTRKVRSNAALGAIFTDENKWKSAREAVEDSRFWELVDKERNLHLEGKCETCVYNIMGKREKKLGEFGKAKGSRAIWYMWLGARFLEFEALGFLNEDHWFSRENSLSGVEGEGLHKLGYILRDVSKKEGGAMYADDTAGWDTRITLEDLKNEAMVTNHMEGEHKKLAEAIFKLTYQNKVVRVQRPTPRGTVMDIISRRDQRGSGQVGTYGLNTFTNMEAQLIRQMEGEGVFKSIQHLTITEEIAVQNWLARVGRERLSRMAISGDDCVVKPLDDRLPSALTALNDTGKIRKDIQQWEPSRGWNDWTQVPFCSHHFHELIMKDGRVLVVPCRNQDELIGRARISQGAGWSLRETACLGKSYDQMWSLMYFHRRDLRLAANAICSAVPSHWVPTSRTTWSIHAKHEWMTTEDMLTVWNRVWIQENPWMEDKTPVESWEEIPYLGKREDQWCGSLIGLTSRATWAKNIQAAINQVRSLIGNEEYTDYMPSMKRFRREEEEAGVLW
G2/mitotic-specific cyclin-B1, sequence (P14635 whole entry): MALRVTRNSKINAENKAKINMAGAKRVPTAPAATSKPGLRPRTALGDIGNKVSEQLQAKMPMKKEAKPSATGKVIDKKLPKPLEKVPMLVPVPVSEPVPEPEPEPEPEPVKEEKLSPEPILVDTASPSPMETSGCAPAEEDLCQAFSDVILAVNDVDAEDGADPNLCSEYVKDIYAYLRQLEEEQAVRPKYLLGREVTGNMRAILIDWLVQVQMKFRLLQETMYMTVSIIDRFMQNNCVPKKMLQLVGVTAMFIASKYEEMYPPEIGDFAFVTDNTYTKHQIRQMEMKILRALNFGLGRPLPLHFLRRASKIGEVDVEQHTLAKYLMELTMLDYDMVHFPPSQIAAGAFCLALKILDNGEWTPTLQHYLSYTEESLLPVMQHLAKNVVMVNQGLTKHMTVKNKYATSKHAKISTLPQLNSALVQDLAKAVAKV

As for `Oc1ccc(NC(=S)N=Nc2c(O)[nH]c3ccccc23)cc1`, the IC50 (commonly the concentration that inhibits the measured activity by half) is > 20 µM (inactive) at Bcl-2-related protein A1 and > 50 µM (inactive) at Orexin receptor type 2.

As for `CCc1ccc(S(=O)(=O)Nc2cc(SCC(=O)O)c(O)c3ccccc23)cc1`, the 50% inhibitory concentration (IC50) on Genome polyprotein is 9.53 µM (active).

As to `O=[N+]([O-])c1ccc(Sc2cccc[n+]2[O-])c2nonc12`, the 50% effective concentration (EC50) (in general, the midpoint of the concentration-response curve) in assay [1] was > 49.7 µM (not active).

For `CCCC(=O)NC(c1ccc(C(C)C)cc1)c1ccc2cccnc2c1O` (stereo not drawn), the half-maximal effective concentration (EC50) in assay [2] is 3.75 µM (active). Further, the IC50 with Jurkat is 2.58 µM (active).

Consider `Oc1c(Cl)cc(Cl)c(Cl)c1Cc1c(O)c(Cl)cc(Cl)c1Cl` [HEXACHLOROPHENE], for which the values for the half-inhibitory concentration (IC50) in assay [3] and in assay [4] were 3.73 µM (active) and > 10 µM (inactive), respectively.
